The values below come from patent US20020142940A1, “Method of inhibiting viral infection using HMG-COA reductase inhibitors and isoprenylation inhibitors” (priority 2000, published 2002).

Where “and” joins values, the source holds several entries; their conditions need not be identical. Identical values can stand only once. Entries after “also recorded” stand apart in the source; their conditions may differ.

For series [1], the system named is RSV. In words: RSV replication in mice, lung plaque assay. Conditions: for peak RSV titer in the lung: mice, oral gavage beginning three days prior to infection, 1 mg/day lovastatin or 50 mg/day gemfibrozil, lungs day 4. The class given is in vivo.
The test system of the next series is vaccinia virus. The class given is in vivo, mice. The following applies: 1 mg/day lovastatin or 50 mg/day gemfibrozil oral gavage beginning three days prior to infection, vs PBS.
The test system of series [2] is RSV. As to the kind of experiment: RSV-induced weight loss and illness in mice. The following applies: for peak percent weight loss on day 8 post infection: comparison PBS, gemfibrozil, lovastatin treated RSV-infected mice. The format is in vivo.
Series [3] in a line: Weight loss in uninfected treated mice. The following applies: 1 mg/day lovastatin or 50 mg/day gemfibrozil for 11 days. The class given is in vivo.
The subject of series [4] is HPIV-3. As to the kind of experiment: HPIV-3 syncytia formation in HEp-2 cells. The following applies: for rescue of lovastatin inhibition of HPIV-3 syncytia formation: added to lovastatin treated cells. The class given is cell-based.
Series [5] has as its system HPIV-3. In words: HPIV-3 replication in HEp-2 cells, plaque assay. The following applies: for rescue of lovastatin inhibition of HPIV-3 replication: added to 10 μM lovastatin treated cells, 50 μM GGP, mevalonolactone or FP, cholesterol concentration not given; for reduction of HPIV-3 replication: 5 μM, 24 hrs treatment, MOI 0.1, titer 2 days after infection. The class given is cell-based.

For series [6], the system named is RSV. As to the kind of experiment: RSV replication in HEp-2 cell culture, plaque assay. The class given is cell-based. The method, then: FIG. 5—Lovastatin eliminates RSV replication in cell culture. HEp-2 cell monolayers grown in 96 well plates were treated with either 10 μM lovastatin or left untreated beginning 24 hr prior to RSV infection (moi 0.1). Virus titer was measured for 8 consecutive days after RSV infection daily by plaque assay for eight days post RSV infection by harvesting the entire contents of a well and performing plaque assays in triplicate. RSV growth curve in untreated cells (□) and in cells treated with 10 μM lovastatin ( ? ). Error bars represent standard deviation.
Virus and Cells. The A2 strain of RSV was provided by Dr. R. Chanock, NIH, Bethesda, Md. RSV stocks were prepared as previously described (Graham et al., 1988). HEp-2 cells were maintained in Eagle's minimal essential media supplemented with glutamine, gentamicin, penicillin G, and 10% fetal bovine serum (FBS).
Plaque assay. Two-day-old HEp-2 monolayers, 80% confluent in 12-well plates (Costar, Cambridge, Mass.) were used for plaque assay. The assay was done as previously described (Graham et al., 1988).
Lovastatin eliminates RSV replication in HEp-2 cells. Next, the inventors asked whether lovastatin could alter RSV replication in cell culture. HEp-2 cells in a 96-well plate were treated with either 10 μM lovastatin or left untreated beginning 24 hr prior to RSV infection. […]

Series [7] relates to RSV glycoproteins F, G and SH. The class given is cell-based.
The subject of another series is HIV-1. The following applies: human H9 lymphocytic cell line, early stages of infection; cited from earlier work.
A further series relates to HIV. The following applies: cultured MT-2 cells; reported in U.S. Ser. No. 09/129,565; cited from earlier work.
[8] abbreviates: 5 μM, beginning 24 hr prior to infection, MOI 0.1, two days post infection.
Setting [9] is: 10 μM lovastatin beginning 24 hr prior to infection, MOI 0.1.

Turning to `Cc1ccc(C)c(OCCCC(C)(C)C(=O)O)c1` [gemfibrozil], in the series on RSV [1] (50 mg/day gemfibrozil oral gavage (FIG. 1)), the “inhibition of RSV replication in mice” value is “does not inhibit RSV replication”. Besides, the “peak RSV titer in the lung” value in the series with RSV [1] is 6.5+/−0.43 log10 pfu/gm. Also, the “effect on vaccinia replication” value in the series with vaccinia virus is “not effected”. For the same molecule, the “peak percent weight loss on day 8 post infection” value with RSV [2] was determined as 40%. Also, the “weight loss in uninfected mice” value in series [3] is “no significant weight loss”.

Take `CC(C)=CCC/C(C)=C/CC/C(C)=C/CC/C(C)=C/COP(=O)(O)OP(=O)(O)O` [geranylgeranylpyrophosphate]: the “rescue of lovastatin inhibition of HPIV-3 syncytia formation” value in the series with HPIV-3 [4] is recorded as “rescues the inhibition”. Besides, the “rescue of lovastatin inhibition of HPIV-3 replication” value with HPIV-3 [5] was “rescues the inhibition”.

For `CC(C)CCC[C@@H](C)[C@H]1CC[C@H]2[C@@H]3CC=C4C[C@@H](O)CC[C@]4(C)[C@H]3CC[C@]12C` [cholesterol], in the series with HPIV-3 [5], the “rescue of lovastatin inhibition of HPIV-3 replication” value is listed as “cannot rescue the inhibition”.

In the case of `C[C@@]1(O)CCOC(=O)C1` [mevalonolactone], the “rescue of lovastatin inhibition of RSV replication” value in the series with RSV [6] (10 μM lovastatin for 24 hr followed by 20 μM mevalonolactone) is reported as “can be rescued”. In addition, in the series with HPIV-3 [4], the “rescue of lovastatin inhibition of HPIV-3 syncytia formation” value is on record as “rescues the inhibition”. The “rescue of lovastatin inhibition of HPIV-3 replication” value in the series with HPIV-3 [5] was “rescues the inhibition”.

`COC(=O)[C@H](CCSC)NC(=O)c1ccc(NC[C@@H](N)CS)cc1-c1ccccc1` [FTI-277]: the HPIV-3-induced syncytia formation result with HPIV-3 [4] (setting [8]) was “does not inhibit”. In addition, the “reduction of HPIV-3 replication” value with HPIV-3 [5] is given as 10 fold.

Consider `CC[C@H](C)C(=O)O[C@H]1C[C@@H](C)C=C2C=C[C@H](C)[C@H](CC[C@@H]3C[C@@H](O)CC(=O)O3)[C@H]21` [lovastatin], for which, in the series with RSV [1] (1 mg/day lovastatin beginning 1 day after RSV infection), the “reduction in RSV viral titer” value is reported as 10 fold. Besides, the “reduction in RSV viral titer compared to untreated mice” value in the series with RSV [1] (1 mg/day lovastatin beginning 3 days after infection) is given as “no reduction”. Further, the entries for the “RSV viral titer in the lung on day 4” value with RSV [1] (1 mg/day lovastatin beginning 3 days prior to infection) and with RSV [1] (1 mg/day lovastatin starting 3 days after RSV infection) were 3.8+/−0.48 log10 pfu/gm and 6.3+/−1.1 log10 pfu/gm, respectively. The “reduction in RSV viral titer in lung compared to untreated mice” value in the series with RSV [1] (1 mg/day lovastatin beginning 3 days prior to infection, day 4) was > 100 fold and 100- to 1000 fold. In addition, the “reduction of RSV replication” value in the series with RSV [1] (1 mg/day lovastatin oral gavage beginning three days prior to infection, vs PBS/gemfibrozil (FIG. 1)) was about 100 fold. Also, in the series with RSV [1] (C57BL6 mice, 1 mg/day and 5 mg/day within 0.5 to 20 mg/day dose response), the “inhibition of RSV replication, dose response” value was “inhibited RSV replication equivalently”. Further, the “peak RSV titer in the lung” value in the series on RSV [1] is 4.7+/−0.4 log10 pfu/gm. The “effect on vaccinia replication” value in the series with vaccinia virus was “not effected; also recorded: does not inhibit vaccinia virus replication”. The results for the “peak weight loss 8 days post infection” value in the series on RSV [2] (1 mg/day lovastatin 1 day post infection), in the series with RSV [2] (1 mg/day lovastatin 1 day prior to infection) and in the series on RSV [2] (1 mg/day lovastatin 3 days prior to infection) were 22%, 19% and 17%, respectively. The “peak percent weight loss at 8 days post infection” value in the series with RSV [2] (1 mg/day lovastatin 3 days after RSV infection) is “about 30%”. The “peak percent weight loss on day 8 post infection” value with RSV [2] is listed as 19%. Moreover, the RSV-induced illness entry in the series on RSV [2] (lovastatin treatment, data not shown) was “reduces RSV-induced illness”. For the same molecule, the “weight loss in uninfected mice” value in series [3] was “no significant weight loss”. For the same molecule, the “RSV replication in HEp-2 cells” value in the series on RSV [6] (10 μM lovastatin beginning 24 hr prior to RSV infection (moi 0.1), titer for 8 days) is given as “completely inhibited”. Also, the “diminution of virus-induced cell-to-cell fusion” value in series [7] was “greater than 50%”. Also, the “fusion events per well” value in series [7] is listed as 75+/−11 fusion events per well. Further, the HPIV-3-induced syncytia formation result in the series on HPIV-3 [4] (setting [9]) is on record as “blocked”. Also, the HPIV-3 replication entry in the series on HPIV-3 [5] (setting [9]) is recorded as “completely blocks”. Besides, the “reverse transcriptase activity in H9 cells infected with HIV-1” value with HIV-1 was “decrease in reverse transcriptase activity”.

Turning to `CC(C)=CCC/C(C)=C/CC/C(C)=C/COP(=O)(O)OP(=O)(O)O` [farnesylpyrophosphate], the “rescue of lovastatin inhibition of HPIV-3 syncytia formation” value in the series on HPIV-3 [4] was “does not rescue the inhibition”. For the same molecule, the “rescue of lovastatin inhibition of HPIV-3 replication” value in the series on HPIV-3 [5] is “partially restores”.

“RhoA77-95: peptide comprising the sequence of amino acids 77-95 of RhoA (TDVILMCFSIDSPDSLENI; UniProt P61586 77-95, looked up, fragment)”: in the series with HIV, the “HIV infection and syncytia formation” value is “inhibit both infection and syncytia formation”.

For the molecule `COC(=O)[C@H](CC(C)C)NC(=O)c1ccc(NC[C@@H](N)CS)cc1-c1cccc2ccccc12` [GGTI-298], the HPIV-3-induced syncytia formation entry with HPIV-3 [4] (setting [8]) is “blocked”. Moreover, the “reduction of HPIV-3 replication” value with HPIV-3 [5] came out at 100 fold.
